One block for each compound: values may come before it.
Legend:
[1] = test system: DNFB-induced contact hypersensitivity (ear swelling response); assay: Contact hypersensitivity (CHS) mouse model; settings: i.p. 5 mg/kg 1 hr before
[2] = test system: Streptococcus pyogenes ATCC 12344; assay: MIC by the agar dilution method; assay type: cell-based; settings: pH 5.5, compared with Staphylococcus aureus
Description: (§1) To assess the anti-microbial potency of Neramexane against bacteria strains which are relevant for atopic dermatitis and localized skin infections (“impetigo”), the minimal inhibitory concentration (MIC) against the following bacteria is established:
(§2) The MICs of the samples are determined using the agar dilution method based on DIN 58940. Petri dishes of 5.5 cm diameter are poured with 2.5 ml of freshly prepared Mueller-Hinton agar 2-fold concentrated (Merck company, Cat-No 1.05437), pH 5.5, maintained in liquid form at 50° C., to which the sample dilutions at various concentrations has been added at 50.0 vol.-%.
(§3) Neramexane-Mesylate is tested in the concentration range of 6.25-1*10^−2%. All test solutions are adjusted to pH 5.5.
(§4) For inoculation, 1 μl of the respective germ suspension is placed on the centre of each agar plate. After drying, inoculated plates are incubated at 36.0±2.0° C. The basis for the length of incubation period is the respective growth control cultivated in parallel.
(§5) The test microbe suspension is prepared by inoculating a few individual colonies of the respective bacteria into sterile saline solution until a turbidity corresponding to the McFarland standard 1.0 (approximately 10^8 cfu/ml) is reached. After that, the test microbe suspensions are further diluted 1:10 with saline solution and the microbial counts (see Table 33) are determined by the surface spread method using a spiral plater.
(§6) The agar plates are incubated under the conditions given in Table 34 and subsequently evaluated. The MIC-values as given represent the lowest concentration of the active substance at which there is no macroscopically visible growth. Minimal, barely visible growth or few small individual colonies are evaluated as inhibition.
(§7) The growth of bacteria is indicated for the duplicate plates by a +(i.e., growth) or a −(i.e., no growth), +− indicates weak growth on both plates or growth on one plate and no growth on the other plate. Both bacteria-strains show appropriate growth on the respective control plate not containing any test compound. No influence of the used diluent (Aqua purifacata) is observed. No contamination is observed on the control-plates. In general it has to be considered that values determined by the used method can vary by a factor of 2 (for 1:2 dilutions).

[3] = test system: Staphylococcus aureus ATCC 6538; assay: MIC by the agar dilution method; assay type: cell-based; settings: pH 5.5
Description: as §1, §2, §3, §4, §5, §6, §7

Propionibacterium acnes = assay: Log reduction assay; assay type: cell-based; settings: log reduction experiment
Description: In order to determine the efficacy of Neramexane against a specific microorganism population (i.e., Propionibacterium acnes), a log reduction assay is performed. The organisms are prepared by inoculating the fluid thioglycolate (FTM). The microorganism is then incubated at 35.2±2.5° C. for 24 hours. The microbial suspension is adjusted to approximately 107 to 108 colony forming units (CFU) per mL and labeled as the stock suspension. […] Then […] is transferred into 11 mL of DI water to prepare a 3.125% solution. This solution is then inoculated with the microorganism and tested at time intervals of 30 seconds, 1 minute, and 5 minutes. One milliliter from each dilution is spread plated in duplicate onto tryptic soy agar with 5% sheep blood. The plates are incubated anaerobically at 35.2±2.5° C. for a minimum of 48 hours. The same procedure is repeated for the Phosphate Buffer Saline control. After the incubation period, all plates are counted to determine the number of microorganisms remaining at each time point. The concentration of each microorganism for the control and product is calculated for each interval. The log reduction is calculated to determine the change (reduction or increase) of the microorganism population relative to a starting inoculum. The minimum required bactericidal concentration is defined as a 3 log reduction from the initial inoculum.

[4] = test system: ear swelling response induced by croton oil; assay: Irritant dermatitis mouse model (croton oil); assay type: in vivo, C57BL/6N male mice; settings: i.p. 5 mg/kg 1 hr before, 3.2 mg/kg 1 hr and 3 hr after irritation; 7 hours and 24 hours
Description: In order to further test for antiinflammatory properties, an irritant dermatitis mouse model is used. Induction of an ear swelling response by croton oil is a toxic reaction. This response is a concentration-dependent phenomenon, independent of sensitized lymphocytes.
20 μl of 1% croton oil in acetone is applied on the left ear. Ear swelling is measured after 7 hours and 24 hours. Ear swelling is quantified with a springloaded micrometer. […] An additional group is treated with neramexane (as described above) and croton oil.
Sensitization results are analyzed using student test (comparison between treatment and positive control).

[5] = test system: Propionibacterium avidum ATCC 25577; assay: MIC and MBC by the agar dilution method; assay type: cell-based; settings: pH 5.5
Description: (§8) To assess the anti-microbial potency of Neramexane against acne relevant bacterias the minimal inhibitory concentration (MIC) and minimal bactericidal concentration (MBC) against the following bacterias is established: The MICs of the samples are determined using the agar dilution method based on DIN 58940. Petri dishes of 5.5 cm diameter are poured with 2.5 ml of freshly prepared Mueller-Hinton agar (Merck company, Cat-No 1.05437) or Wilkins-Chalgren-Agar (Oxoid company, Cat-No CM643), maintained in liquid form at 50° C., to which the sample dilutions at various concentrations have been added at 50.0 vol.-%. To prepare the starting sample dilutions, a 12.5%, 3.12% suspension of the respective sample solution is prepared with Aqua purificata. From these stock-solutions, further dilutions are prepared with Aqua purificata. All test compounds are adjusted to pH 5.5. For test product no. 1, separate dilutions adjusted to pH 6.0 and pH 7.4 are also prepared. For inoculation, 1 μl of the respective germ suspension is placed on the centre of each agar plate. After drying, inoculated plates are incubated at 36.0±2.0° C. The basis for the length of incubation period is the respective growth control cultivated in parallel. The test microbe suspension is prepared by inoculating a few individual colonies of the respective bacteria into sterile saline solution until a turbidity corresponding to the McFarland standard 1.0 (approximately 10^8 cfu/ml) is reached. After that, the test microbe suspensions are further diluted 1:10 with saline solution and the microbial counts (see Table 21) are determined by the surface spread method using a spiral plater. The agar plates are incubated under the conditions given in Table 22 and subsequently evaluated. The MIC-values as given represent the lowest concentration of the active substance at which there is no macroscopically visible growth. Minimal, barely visible growth or few small individual colonies are evaluated as inhibition. [table] All negative tests of the determination of the minimal bactericial concentration are the basis of verification of remaining germs, the inoculated agar segments are cut and put in Mueller-Hinton-Bouillon (germ 1) or Wilkins-Chalgren-Bouillon (germs 2-4). After an adequate incubation period at 36.0±2.0° C. (as judged from a control without test compound), the tests are checked manually on microbial growth (=turbidity) and the minimal bactericidal concentration is determined. MBC indicates the concentration without marked turbidity. Grown germs are checked for identity to rule out unspecific contaminations. The following results are summarized and tabulated: • a) Results of the Minimal Inhibitory Concentration (MIC)* • b) Results of the Minimal Bactericidal Concentration (MBC) *The MIC is the concentration without macroscopical growth. Scarcely apparent, minimum growth or few single colonies are not considered. The controls must have a respectively good developed growth. There must be no growth on the agar plates for the sterile control. The growth of bacteria is indicated for the duplicate plates by a +(i.e., growth) or a −(i.e., no growth), +− indicates weak growth on both plates or growth on one plate and no growth on the other plate. All bacteria show appropriate growth on the respective control plate not containing any test compound. No influence of the used diluent (Aqua purifacata) was observed. No contamination is observed on the control-plates.

[6] = test system: Staphylococcus epidermidis ATCC 12228; assay: MIC and MBC by the agar dilution method; assay type: cell-based; settings: pH 5.5
Description: as §8

[7] = test system: Propionibacterium granulosum ATCC 11829; assay: MIC and MBC by the agar dilution method; assay type: cell-based; settings: pH 5.5
Description: as §8

[8] = test system: Propionibacterium acnes ATCC 11828; assay: MIC and MBC by the agar dilution method; assay type: cell-based; settings: pH 5.5
Description: as §8

[9] = final concentration 0.002 % (Neramexane-HCl)
[10] = final concentration 0.005 % (Neramexane-HCl)
[11] = final concentration 0.01 % (Neramexane-HCl)
[12] = final concentration 0.02 % (Neramexane-HCl)
[13] = final concentration 0.04 % (Neramexane-HCl)
[14] = final concentration 0.08 % (Neramexane-HCl)
[15] = final concentration 0.16 % (Neramexane-HCl)
[16] = final concentration 0.31 % (Neramexane-HCl)
[17] = final concentration 0.63 % (Neramexane-HCl)
[18] = final concentration 1.56 % (Neramexane-HCl)

SMILES: CC1(C)CC(C)(C)CC(C)(N)C1 [Neramexane, 1-amino-1,3,3,5,5-pentamethylcyclohexane]
ear swelling response ([1]; 3.2 mg/kg 1 hr and 3 hr after challenge, 24 hours after elicitation): significantly reduces ear swelling response
induction of an immune response (sensitization) ([1]; 3.2 mg/kg 1 hr and 3 hr after sensitization): does not appear to have an impact on the induction of an immune response
antibacterial activity [2]: acts even to greater extend against Streptococcus pyogenes
antibacterial activity [3]: exhibits antibacterial activity with respect to Staphylococcus aureus
antibacterial activity (Propionibacterium acnes): exhibits antibacterial activity against Propionibacterium acnes
ear swelling response induced by croton oil [4]: reduces the ear swelling response induced by croton oil to some degree

growth of bacteria on duplicate plates (MIC determination) [5, 9]: + +
growth of bacteria on duplicate plates (MIC determination) [5, 10]: + +
growth of bacteria on duplicate plates (MIC determination) [5, 11]: + +
growth of bacteria on duplicate plates (MIC determination) [5, 12]: + +
growth of bacteria on duplicate plates (MIC determination) [5, 13]: + +
growth of bacteria on duplicate plates (MIC determination) [5, 14]: + −
growth of bacteria on duplicate plates (MIC determination) [5, 15]: − −
growth of bacteria on duplicate plates (MIC determination) [5, 16]: − −
growth of bacteria on duplicate plates (MIC determination) [5, 17]: − −
growth of bacteria on duplicate plates (MIC determination) [5, 18]: − −
MIC [5]: 0.16%
growth of bacteria on duplicate plates (MIC determination) [6, 9]: + +
growth of bacteria on duplicate plates (MIC determination) [6, 10]: + +
growth of bacteria on duplicate plates (MIC determination) [6, 11]: + +
growth of bacteria on duplicate plates (MIC determination) [6, 12]: + +
growth of bacteria on duplicate plates (MIC determination) [6, 13]: + +
growth of bacteria on duplicate plates (MIC determination) [6, 14]: + +
growth of bacteria on duplicate plates (MIC determination) [6, 15]: + +
growth of bacteria on duplicate plates (MIC determination) [6, 16]: + +
growth of bacteria on duplicate plates (MIC determination) [6, 17]: − −
growth of bacteria on duplicate plates (MIC determination) [6, 18]: − −
MIC [6]: 0.63%
growth of bacteria on duplicate plates (MIC determination) [7, 9]: + +
growth of bacteria on duplicate plates (MIC determination) [7, 10]: + +
growth of bacteria on duplicate plates (MIC determination) [7, 11]: + +
growth of bacteria on duplicate plates (MIC determination) [7, 12]: + +
growth of bacteria on duplicate plates (MIC determination) [7, 13]: + +
growth of bacteria on duplicate plates (MIC determination) [7, 14]: − −
growth of bacteria on duplicate plates (MIC determination) [7, 15]: − −
growth of bacteria on duplicate plates (MIC determination) [7, 16]: − −
growth of bacteria on duplicate plates (MIC determination) [7, 17]: − −
growth of bacteria on duplicate plates (MIC determination) [7, 18]: − −
MIC [7]: 0.08%
growth of bacteria on duplicate plates (MIC determination) [8, 9]: + +
growth of bacteria on duplicate plates (MIC determination) [8, 10]: + +
growth of bacteria on duplicate plates (MIC determination) [8, 11]: + +
growth of bacteria on duplicate plates (MIC determination) [8, 12]: + +
growth of bacteria on duplicate plates (MIC determination) [8, 13]: + +
growth of bacteria on duplicate plates (MIC determination) [8, 14]: + +
growth of bacteria on duplicate plates (MIC determination) [8, 15]: − −
growth of bacteria on duplicate plates (MIC determination) [8, 16]: − −
growth of bacteria on duplicate plates (MIC determination) [8, 17]: − −
growth of bacteria on duplicate plates (MIC determination) [8, 18]: − −
MIC [8]: 0.16%
SMILES: CC1(C)CC(C)(C)CC(C)(N)C1.Cl [Neramexane-HCl]
growth of bacteria (MBC determination) [5, 15]: + +
growth of bacteria (MBC determination) [5, 16]: + +
growth of bacteria (MBC determination) [5, 17]: + +
growth of bacteria (MBC determination) [5, 18]: − −
MBC [5]: 1.56%
growth of bacteria (MBC determination) [6, 17]: + +
growth of bacteria (MBC determination) [6, 18]: + +
MBC [6]: >1.56%
growth of bacteria (MBC determination) [7, 14]: + +
growth of bacteria (MBC determination) [7, 15]: + +
growth of bacteria (MBC determination) [7, 16]: + +
growth of bacteria (MBC determination) [7, 17]: − −
growth of bacteria (MBC determination) [7, 18]: − −
MBC [7]: 0.63%
growth of bacteria (MBC determination) [8, 15]: + +
growth of bacteria (MBC determination) [8, 16]: + +
growth of bacteria (MBC determination) [8, 17]: + +
growth of bacteria (MBC determination) [8, 18]: − −
MBC [8]: 1.56%

Reference: patent US20140228440A1, “1-AMINO-ALKYLCYCLOHEXANE DERIVATIVES FOR THE TREATMENT OF INFLAMMATORY SKIN DISEASES” (MERZ PHARMA GmbH & CO. KGaA, priority 2008, published 2014)
